# Data as given in patent US20090247560A1, “Diaryl ketimine derivative” (Banyu Pharmaceutical Co., Ltd., priority 2006, published 2009).
# Target: T1, human MCH-1R (Homo sapiens, UniProt Q99705)
# T1 construct: expressed in transfected cells; host or cells: CHO-K1 (American Type Culture Collection), membrane samples
# Assay: MCH binding inhibition test
# Details: inhibition of specific [125I]MCH binding to membranes of CHO-K1 cells expressing human MCH-1R; 25° C., one hour, pH 7.4
# Procedure: A human MCH-1R encoding cDNA sequence [FEBS Letters, Vol. 398, 253 (1996); Biochimica et Biophisica Acta, Vol. 1401, 216 (1998)] was cloned to a plasmid vector pEF/myc/cyto (Invitrogen Corporation). The obtained expression vector was transfected to host cells CHO-K1 (American Type Culture Collection) using Lipofectamine Plus Reagent (Life Technology Inc.) to provide MCH-1R expression cells.
# Membrane samples prepared from the MCH-1R expression cells were incubated with each test compound and […] of [^125I]MCH (NEN Co.), in an assay buffer (50 mM Tris buffer comprising 10 mM magnesium chloride, 2 mM ethylenediamine tetraacetate, 0.01% bacitracin and 0.2% bovine serum albumin; pH 7.4) at 25° C. for an hour, followed by filtration through a glass filter CF/C (Wattman Co.). After washing the glass filter with 50 mM Tris buffer (pH 7.4) comprising 10 mM magnesium chloride, 2 mM ethylenediamine tetraacetate and 0.04% Tween-20, the radioactive activity on the glass filter was measured.
# T1 sequence (Q99705 whole entry): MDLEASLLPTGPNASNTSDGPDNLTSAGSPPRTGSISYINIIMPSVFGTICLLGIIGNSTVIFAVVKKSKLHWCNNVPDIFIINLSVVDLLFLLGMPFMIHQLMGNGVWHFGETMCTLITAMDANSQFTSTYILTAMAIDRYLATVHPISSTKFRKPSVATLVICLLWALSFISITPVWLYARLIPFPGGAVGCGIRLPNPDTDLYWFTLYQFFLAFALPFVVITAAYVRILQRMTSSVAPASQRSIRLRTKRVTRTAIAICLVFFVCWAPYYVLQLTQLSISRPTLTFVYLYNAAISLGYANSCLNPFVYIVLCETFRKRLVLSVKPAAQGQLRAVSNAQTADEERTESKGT
row,Compound,IC50 [nM]
1,"CC(c1ccc(/C(=N/OCCF)c2ccc(F)c(F)c2)nc1)N1CCC2(CC1)OCc1ccncc12 (single isomer, unassigned) [Example 2-1-3, (E)-(3,4-difluorophenyl){5-[1-(1H,1′H-spiro[furo[3,4-c]pyridine-3,4′-piperidin]-1′-yl)ethyl]pyridin-2-yl}methanone O-(2-fluoroethyl)oxime]",1.55
2,"CC(c1ccc(/C(=N/OCC(C)(C)O)c2ccc(F)c(F)c2)nc1)N1CCC2(CC1)OCc1ccncc12 (single isomer, unassigned) [Example 3-1-13, (E)-(3,4-difluorophenyl){5-[1-(1H,1′H-spiro[furo[3,4-c]pyridine-3,4′-piperidin]-1′-yl)ethyl]-2-pyridinyl}methanone O-(2-hydroxy-2-methylpropyl)oxime]",4.01
3,"CCO/N=C(\c1ccc(F)c(F)c1)c1ncc(CN2CCC3(CC2)OCc2ccncc23)cn1 [Example 1-3-2, (E) or (Z)-(3,4-difluorophenyl)[5-(1H,1′H-spiro[furo[3,4-c]pyridine-3,4′-piperidin]-1′-ylmethyl)pyrimidin-2-yl]methanone O-ethyloxime]",8.9
4,"FCCO/N=C(/c1ccc(CN2CCC3(CC2)OCc2ccncc23)cc1)c1ccc(F)c(F)c1 [Example 2-1-2, (Z)-(3,4-difluorophenyl)[4-(1H,1′H-spiro[furo[3,4-c]pyridine-3,4′-piperidin]-1′-ylmethyl)phenyl]methanone O-(2-fluoroethyl)oxime]",0.07
5,"CN(C)C(=O)CO/N=C(/c1ccc(CN2CCC3(CC2)OCc2cc(F)ncc23)cc1)c1ccc(F)c(F)c1 [Example 2-6, 2-{[((1Z)-(3,4-difluorophenyl){4-[(6-fluoro-1H,1′H-spiro[furo[3,4-c]pyridine-3,4′-piperidin]-1′-yl)methyl]phenyl}methylene)amino]oxy}-N,N-dimethylacetamide]",0.27
6,"Cn1cc2c(cc1=O)C1(CCN(Cc3ccc(/C(=N/OCC#N)c4ccc(F)c(F)c4)nc3)CC1)OC2 [Example 2-10-2, {[((1E)-(3,4-difluorophenyl){5-[(5-methyl-6-oxo-5,6-dihydro-1′H,3H-spiro[furo[3,4-c]pyridine-1,4′-piperidin]-1′-yl)methyl]pyridin-2-yl}methylene)amino]oxy}acetonitrile]",9.03
7,"CCO/N=C(\c1ccc(F)c(F)c1)c1ccc(CN2CCC3(CC2)OCc2cc[n+]([O-])cc23)cn1 [Example 3-1-11, (E)-(3,4-difluorophenyl){5-[(5-oxido-1H,1′H-spiro[furo[3,4-c]pyridine-3,4′-piperidin]-1′-yl)methyl]-2-pyridinyl}methanone O-ethyloxime]",4.7
8,"Cn1cc2c(cc1=O)C1(CCN(Cc3ccc(/C(=N/OCF)c4ccc(F)c(F)c4)nc3)CC1)OC2 [Example 3-1-15, 1′-[(6-{(E)-(3,4-difluorophenyl)[(fluoromethoxy)imino]methyl}-3-pyridinyl)methyl]-5-methyl-3,5-dihydro-6H-spiro[furo[3,4-c]pyridine-1,4′-piperidin]-6-one]",8.37
